Measured values as given in paper PMC6328288 (Journal of Medicinal Chemistry, 2018).

Tests used:
human CCR1 [1] = molecular target: T1, human CCR1 (Homo sapiens, UniProt P32246); experiment: [3H]-CCR2-RA-[R] displacement binding assay on U2OS-CCR1 membranes; conditions: for displacement of [3H]-CCR2-RA-[R] from CCR1 (in words): concentration-dependent
T1 sequence (P32246 1-355): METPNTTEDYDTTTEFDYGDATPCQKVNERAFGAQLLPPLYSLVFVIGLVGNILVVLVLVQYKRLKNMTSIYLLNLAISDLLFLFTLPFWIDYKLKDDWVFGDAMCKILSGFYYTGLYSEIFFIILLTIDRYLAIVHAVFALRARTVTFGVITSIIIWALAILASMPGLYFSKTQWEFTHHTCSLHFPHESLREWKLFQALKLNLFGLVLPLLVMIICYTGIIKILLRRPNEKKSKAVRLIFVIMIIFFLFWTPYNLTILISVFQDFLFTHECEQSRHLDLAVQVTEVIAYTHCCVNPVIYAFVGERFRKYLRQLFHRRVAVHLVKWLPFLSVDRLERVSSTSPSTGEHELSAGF

human CCR2 [2] = molecular target: T2, human CCR2 (Homo sapiens, UniProt P41597); experiment: [3H]-CCR2-RA-[R] displacement binding assay on U2OS-CCR2 membranes; conditions: for displacement at 1 μM (%) / pKi ± SEM: CCR2; for displacement at 1 μM (%): [3H]-CCR2-RA-[R] displacement by 1 μM compound, mean of two experiments; for pKi ± SEM: [3H]-CCR2-RA-[R] binding, U2OS membranes, 25 °C
T2 sequence (P41597 1-360 isoform P41597-2): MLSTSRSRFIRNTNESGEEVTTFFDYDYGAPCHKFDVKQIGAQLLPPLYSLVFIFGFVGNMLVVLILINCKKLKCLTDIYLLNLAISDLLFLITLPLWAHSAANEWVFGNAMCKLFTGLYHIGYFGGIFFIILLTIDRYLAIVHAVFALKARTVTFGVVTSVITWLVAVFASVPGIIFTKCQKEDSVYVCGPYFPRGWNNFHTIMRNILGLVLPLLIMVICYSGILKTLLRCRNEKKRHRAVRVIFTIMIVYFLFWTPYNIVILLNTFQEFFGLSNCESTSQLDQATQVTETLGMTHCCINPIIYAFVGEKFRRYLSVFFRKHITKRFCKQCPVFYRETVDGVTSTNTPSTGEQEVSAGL

human CCR1 [3] = molecular target: T1, human CCR1; experiment: Inhibition of basal [35S]GTPγS binding in absence of CCL3 in U2OS-CCR1; assay type: biochemical; conditions: for fold higher potency as inverse agonist than as antagonist: CCR1, absence versus presence of CCL3; for fold difference between functional and binding assays: CCR1, [35S]GTPγS potency (absence or presence of CCL3) versus binding affinity
human CCR1 [4] = molecular target: T1, human CCR1; experiment: [35S]GTPγS binding assay on U2OS-CCR1 membranes; assay type: biochemical; conditions: for Hill slope, CCR1: CCL3-induced, 8 nM CCL3
human CCR2 [5] = molecular target: T2, human CCR2; experiment: [35S]GTPγS binding assay on U2OS-CCR2 membranes; assay type: biochemical; conditions: for Hill slope, CCR2: CCL2-induced, 20 nM CCL2
[6] = CCR1, [3H]-CCR2-RA-[R] binding, U2OS membranes, 25 °C

C[C@@H]1CN(Cc2ccc(F)cc2)CCN1C(=O)COc1ccc(Cl)cc1NC(N)=O [BX471]
[3H]-CCR2-RA-[R] specific binding in presence of compound (absence = 100%) (human CCR1 [1]; 10 μM BX471, 6 nM radioligand, U2OS-CCR1): 116 ± 2%
[3H]-CCR2-RA-[R] binding enhanced up to (human CCR1 [1]; U2OS-CCR1, increasing concentrations): up to 120%
displacement of [3H]-CCR2-RA-[R] from CCR1 (in words) (human CCR1 [1]; U2OS-CCR1): not able to displace

CC(=O)C1=C(O)C(=O)N(c2ccc(C)cc2)C1c1ccc(C)cc1 (stereo not shown) [Compound 10, 4-Acetyl-3-hydroxy-5-(4-methylphenyl)-1-(4-methylphenyl)-1,5-dihydro-2H-pyrrol-2-one]
displacement at 1 μM (%) (human CCR2 [2]): 36% (42, 31)

COc1ccc(C2C(C(C)=O)=C(O)C(=O)N2c2ccc(C)cc2)cc1 (stereo not shown) [Compound 11, 4-Acetyl-3-hydroxy-5-(4-methoxyphenyl)-1-(4-methylphenyl)-1,5-dihydro-2H-pyrrol-2-one]
displacement at 1 μM (%) (human CCR2 [2]): 5% (5, 5)

CC(=O)C1=C(O)C(=O)N(c2ccc(C)cc2)C1c1cccc(C)c1 (stereo not shown) [Compound 14, 4-Acetyl-3-hydroxy-5-(3-methylphenyl)-1-(4-methylphenyl)-1,5-dihydro-2H-pyrrol-2-one]
displacement at 1 μM (%) (human CCR2 [2]): 11% (14, 8)

COc1cccc(C2C(C(C)=O)=C(O)C(=O)N2c2ccc(C)cc2)c1 (stereo not shown) [Compound 15, 4-Acetyl-3-hydroxy-5-(3-methoxyphenyl)-1-(4-methylphenyl)-1,5-dihydro-2H-pyrrol-2-one]
displacement at 1 μM (%) (human CCR2 [2]): 0% (3, −3)

CCC(=O)C1=C(O)C(=O)N(c2ccc(C)cc2)C1C1CCCCC1 (stereo not shown) [Compound 18, 5-Cyclohexyl-3-hydroxy-4-propionyl-1-(4-methylphenyl)-1,5-dihydro-2H-pyrrol-2-one]
pKi ± SEM (human CCR1 [1]; [6]): 7.52 ± 0.01

Cc1ccc(N2C(=O)C(O)=C(C(=O)C3CC3)C2C2CCCCC2)cc1 (stereo not shown) [Compound 22, 5-Cyclohexyl-4-(cyclopropanecarbonyl)-3-hydroxy-1-(4-methylphenyl)-1,5-dihydro-2H-pyrrol-2-one]
selectivity for CCR1 over CCR2 (human CCR1 [1]; from binding affinities): 8 fold

CCOC(=O)C1=C(O)C(=O)N(c2ccc(C)cc2)C1C1CCCCC1 (stereo not shown) [Compound 24, Ethyl 2-Cyclohexyl-4-hydroxy-5-oxo-1-(4-methylphenyl)-2,5-dihydro-1H-pyrrole-3-carboxylate]
displacement at 1 μM (%) (human CCR2 [2]): 31% (36, 26)

CC(=O)C1=C(O)C(=O)N(c2ccc(Cl)cc2)C1C1CCCCC1 (stereo not shown) [Compound 30, 4-Acetyl-1-(4-chlorophenyl)-5-cyclohexyl-3-hydroxy-1,5-dihydro-2H-pyrrol-2-one]
Ki (human CCR2 [2]): ~20 nM
pKi ± SEM (human CCR2 [2]): 7.73 ± 0.08

CC(=O)C1=C(O)C(=O)N(c2ccc(Br)cc2)C1C1CCCCC1 (stereo not shown) [Compound 31, 4-Acetyl-1-(4-bromophenyl)-5-cyclohexyl-3-hydroxy-1,5-dihydro-2H-pyrrol-2-one]
Ki (human CCR2 [2]): ~20 nM

CC(=O)C1=C(O)C(=O)N(c2ccc(Br)cc2F)C1C1CCCCC1 (stereo not shown) [Compound 39, 4-Acetyl-1-(4-bromo-2-fluorophenyl)-5-cyclohexyl-3-hydroxy-1,5-dihydro-2H-pyrrol-2-one]
fold higher potency as inverse agonist than as antagonist (human CCR1 [3]): 3 fold
Hill slope, CCR1 (human CCR1 [4]): –0.62 ± 0.05
Hill slope, CCR2 (human CCR2 [5]): –0.94 ± 0.18

CC(=O)C1=C(O)C(=O)N(c2ccc(C)c(C)c2)C1C1CCCCC1 (stereo not shown) [Compound 40, 4-Acetyl-5-cyclohexyl-1-(3,4-dimethylphenyl)-3-hydroxy-1,5-dihydro-2H-pyrrol-2-one]
pKi ± SEM (human CCR1 [1]; [6]): 7.37 ± 0.03
pKi ± SEM (human CCR2 [2]): 7.75 ± 0.02

CC(=O)C1=C(O)C(=O)N(c2ccc(Cl)c(C)c2)C1C1CCCCC1 (stereo not shown) [Compound 41, 4-Acetyl-1-(4-chloro-3-methylphenyl)-5-cyclohexyl-3-hydroxy-1,5-dihydro-2H-pyrrol-2-one]
fold higher potency as inverse agonist than as antagonist (human CCR1 [3]): ~10 fold
Hill slope, CCR1 (human CCR1 [4]): –0.72 ± 0.08
Hill slope, CCR2 (human CCR2 [5]): –0.88 ± 0.13

O=C(C1=C(O)C(=O)N(c2ccc(Br)cc2F)C1C1CCCCC1)C1CC1 (stereo not shown) [Compound 43, 1-(4-Bromo-2-fluorophenyl)-5-cyclohexyl-4-(cyclopropanecarbonyl)-3-hydroxy-1,5-dihydro-2H-pyrrol-2-one]
fold difference between functional and binding assays (human CCR1 [3]): more than 130 fold
Hill slope, CCR1 (human CCR1 [4]): –0.73 ± 0.02
Hill slope, CCR2 (human CCR2 [5]): –0.80 ± 0.13
pKi ± SEM (human CCR2 [2]): 7.82 ± 0.04

O=C(C1=C(O)C(=O)N(c2ccc(Br)cc2F)C1C1CCCCC1)c1ccccc1 (stereo not shown) [Compound 44, 4-Benzoyl-1-(4-bromo-2-fluorophenyl)-5-cyclohexyl-3-hydroxy-1,5-dihydro-2H-pyrrol-2-one]
pKi ± SEM (human CCR1 [1]; [6]): 7.56 ± 0.04

O=C(C1=C(O)C(=O)N(c2ccc(Br)cc2F)C1c1cccc(Br)c1)C1CC1 (stereo not shown) [Compound 45, 1-(4-Bromo-2-fluorophenyl)-5-(3-bromophenyl)-4-(cyclopropanecarbonyl)-3-hydroxy-1,5-dihydro-2H-pyrrol-2-one]
fold difference between functional and binding assays (human CCR1 [3]): more than 130 fold
Hill slope, CCR1 (human CCR1 [4]): –0.93 ± 0.01
Hill slope, CCR2 (human CCR2 [5]): –1.20 ± 0.08

CC(=O)C1=C(O)C(=O)N(c2ccc(Br)cc2F)C1c1cccc(Br)c1 (stereo not shown) [Compound 46, 4-Acetyl-1-(4-bromo-2-fluorophenyl)-5-(3-bromophenyl)-3-hydroxy-1,5-dihydro-2H-pyrrol-2-one]
pKi ± SEM (human CCR1 [1]; [6]): 7.19 ± 0.02

COC(=O)c1c(-c2ccno2)[nH]c(=S)n1CCCc1ccc(F)c(F)c1 [JNJ-27141491, (S)-3-[3,4-difluorophenyl)-propyl]-5-isoxazol-5-yl-2-thioxo-2,3-dihydro-1H-imidazole-4-carboxyl acid methyl ester]
Ki (human CCR1 [1]; [6]): 138 nM
pKi ± SEM (human CCR1 [1]; [6]): 6.9 ± 0.06
displacement of [3H]-CCR2-RA-[R] from CCR1 (in words) (human CCR1 [1]; U2OS-CCR1): fully displaced

CCL2: chemokine ligand activating CCR2, purchased from PeproTech
pEC50, stimulation of [35S]GTPγS binding (human CCR2 [5]; U2OS-CCR2): 8.3 ± 0.09
EC50 (human CCR2 [5]; read-out: potency, stimulation of [35S]GTPγS binding, U2OS-CCR2): 5 nM

CCL3: chemokine ligand activating CCR1, purchased from PeproTech
pEC50, stimulation of [35S]GTPγS binding (human CCR1 [4]; U2OS-CCR1): 8.9 ± 0.06
EC50 (human CCR1 [4]; read-out: potency, stimulation of [35S]GTPγS binding, U2OS-CCR1): 1.3 nM
